Experimental findings from patent publication US12577325B2, “Bispecific antibody-camptothecin drug conjugate and pharmaceutical use thereof” (SYSTIMMUNE, INC., priority 2021, dated 2026) are described below.

Experiment [1] concerns human poorly differentiated lung cancer squamous cell carcinoma cell line Oka-c-1. As to the kind of experiment: In vitro efficacy (Alamar Blue or MTS, 5 days) in Oka-c-1. Type of experiment: cell-based. To be noted: 120 h, Oka-c-1, 5 days. The procedure: (§1) The in vitro efficacy of ADC-coupled drugs was evaluated using an experimental model of two human tumor cell lines (human poorly differentiated lung cancer squamous cell carcinoma cell line Oka-c-1, human lung squamous cell carcinoma cells SK-MES-1).
(§2) Inoculate a certain number of tumor cells in a 96-well plate, add the gradient-diluted test antibody and the corresponding ADC drug to the cells, treat for 5 days, measure the cell viability using Alamar Blue or MTS, and evaluate the inhibitory effect of the test antibody, the ADC and the small molecule drug d3 on the tumor cell lines by calculating the IC50. The starting concentration of the antibody drug was 500 nM, and the dilution was 7-fold, totaling 7 concentration points, and the treatment was carried out for 5 days.
A general note: The colour change of resazurin is a common sign of viable cells or microbes.

The subject of experiment [2] is human lung squamous cell carcinoma cells SK-MES-1. As to the kind of experiment: In vitro efficacy (Alamar Blue or MTS, 5 days) in SK-MES-1. It counts as cell-based. Particulars: 120 h, SK-MES-1, 5 days. The protocol: as §1, §2

Regarding `CC[C@@]1(O)C(=O)OCc2c1cc1n(c2=O)Cc2c-1nc1cc(F)c(C)c3c1c2[C@@H](NC(=O)[C@H](C)O)CC3` [d3], the 50% inhibitory concentration (IC50) – broadly, the concentration needed to halve the response being measured – in experiment [1] is 0.846 nM; in experiment [2], 2.04 nM.
